In test [1] the test system is dopamine-induced ERK1/2 activation. Briefly: Effect of pertussis toxin and signalling inhibitors on agonist-induced ERK1/2 activation in AmphiAmR11-expressing CHO-K1 cells. The test is classed as cell-based, Chinese hamster. Conditions: 10 µM inhibitor, 10 nM dopamine, 5 minutes. Here is the method:
Phospho-extracellular signal-related kinase (Phospho-ERK) levels were determined essentially as described previously. Minor modifications have been described. ERK1/2 phosphorylation levels were quantified by densitometry. The developed films were scanned in and analysed using the software program, Aida. The data generated by Aida was then processed using Microsoft Excel. Values for the kinase expression and activity levels were defined as 100% in the control samples. Student’s T-test (two-tailed and unpaired) was used to test for significance.
Figure 5 Effect of pertussis toxin and signalling inhibitors on dopamine-induced ERK1/2 activation in AmphiAmR11-expressing CHO-K1 cells. For the pertussis toxin experiment, AmphiAmR11-expressing CHO-K1 cells were pre-incubated with pertussis toxin (200 ng/ml) for 16 hours prior to serum-starvation for 2 hours in the absence of the toxin. Cells were then stimulated for 5 mins with 10 nM dopamine (open bar) or F-12 Hams control (black bar). For all other inhibitors, AmphiAmR11-expressing CHO-K1 cells were serum starved for 2 hours including incubation with 10 µM inhibitor or F-12 Hams control for the final 20 (AG1296 and AG1478) or 30 (PP2, LY294002, Ro31-8220, U0126, U73122 and U73343) minutes. Cells were then stimulated for 5 minutes with 10 nM dopamine […] in the presence of the inhibitor. Basal measurement in the absence of dopamine and inhibitor (first black bar) and the dopamine-only response in the absence of inhibitor (first open bar) are shown. (A) Representative blots from three or four independent experiments. […] Data are expressed as the mean + SEM. n = 3 - 4. DA, dopamine; PTX, pertussis toxin; Ro, Ro 31-8220; LY, LY294002.
Figure S3. Time courses for the effect of dopamine and tyramine on ERK1/2 phosphorylation in AmphiAmR11-expressing CHO-K1 cells. (A and B) AmphiAmR11-expressing CHO-K1 cells were serum-starved for 2 hours, prior to stimulation with tyramine or dopamine at the specified concentration for the specified length of time. Equal quantities of cell lysates were separated by SDS-PAGE and analysed for pERK or tERK by Western blotting. (C and D): AmphiAmR11-expressing CHO-K1 cells were incubated with pertussis toxin (200 ng/mL) for 16 hours followed by stimulation as described for Figures A and B. (A to D) Representative blot for each condition from three to four independent experiments. (E) Summary of the quantified blots. Data are expressed as the mean ± SEM. n = 3-4. PTX, pertussis toxin; Min, minutes.

In test [2] the test system is D2-dopamine receptors. Also on record: method as in PMID 10531409, PMID 9572301. Conditions: cited from earlier work.
The subject of test [3] is D3-dopamine receptors. Also on record: method as in PMID 10531409, PMID 9572301. Conditions: cited from earlier work.
The subject of test [4] is CHO cell cyclic AMP. The experiment in a line: CHO cell cyclic AMP level after forskolin. It is filed as cell-based, Chinese hamster. Conditions: 10 µM forskolin; basal 5.1 ± 1.7. Here is the method: cAMP levels in stably transfected CHO-K1 cells were determined as described previously, except 100 µM isobutylmethylxanthine (IBMX) was used. cAMP levels are represented as a percentage of basal samples unless otherwise stated. Student’s T-test (two-tailed and unpaired) was used to test for significance. Unless otherwise stated, all data are shown as mean ± SEM. Each data point plotted was the mean of data obtained from at least three experiments. Within each experiment three separate replicate wells were analysed for each condition and the cAMP assays on each of the wells was carried out in duplicate.
Forskolin was used both to increase basal cAMP levels to make it easier to detect increases and decreases in cAMP levels in the same experiments and also to potentiate responses to agonists to more accurately determine their threshold effects [see 22]. A non-saturating 10 µM concentration of forskolin was used. Basal levels of CHO cell cyclic AMP were 5.1 ± 1.7 pmoles / mg protein (n = 3) and these were raised to 1053.7 ± 4.8 pmoles / mg protein after exposure to 10 µM forskolin. Protein levels were determined using a Bradford assay.

Test [5] deals with T1, AmphiAmR11 (Branchiostoma floridae, UniProt A0PF35). The experiment in a line: Block of tyramine-induced inhibition of forskolin-stimulated cAMP levels in AmphiAmR11-expressing CHO-K1 cells. It is filed as cell-based. Conditions: 1 μM antagonist, 30 nM tyramine, 10 µM forskolin.
T1 sequence (A0PF35 entry or part of it): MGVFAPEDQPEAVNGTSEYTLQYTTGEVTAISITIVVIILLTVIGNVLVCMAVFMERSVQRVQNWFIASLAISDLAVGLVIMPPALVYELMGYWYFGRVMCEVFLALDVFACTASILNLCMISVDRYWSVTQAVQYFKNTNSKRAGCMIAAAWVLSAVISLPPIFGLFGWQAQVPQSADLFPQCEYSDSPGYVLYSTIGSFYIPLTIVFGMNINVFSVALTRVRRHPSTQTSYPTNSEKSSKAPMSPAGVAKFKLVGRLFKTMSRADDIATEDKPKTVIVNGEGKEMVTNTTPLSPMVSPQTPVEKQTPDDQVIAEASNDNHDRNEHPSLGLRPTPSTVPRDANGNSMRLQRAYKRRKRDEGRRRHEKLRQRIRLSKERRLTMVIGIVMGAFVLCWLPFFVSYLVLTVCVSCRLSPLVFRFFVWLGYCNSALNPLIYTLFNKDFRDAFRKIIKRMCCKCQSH
Test [6] addresses T1, AmphiAmR11. The experiment in a line: ERK1/2 phosphorylation in AmphiAmR11-expressing CHO-K1 cells (Western blotting). It is filed as cell-based. Conditions: 1 μM antagonist. On the technique in general: In western blotting, separated proteins are transferred to a membrane and probed.
Test [7] has as its target T1, AmphiAmR11. The experiment in a line: Block of dopamine-induced ERK1/2 activation in AmphiAmR11-expressing CHO-K1 cells by antagonists. Conditions: 1 µM antagonist, 10 nM dopamine, 5 min. It is filed as cell-based.
In test [8] the test system is AmphiAmR4. Also on record: method as in PMID 23183848. Conditions: cited from earlier work.
Test [9] deals with OctβRs, CG6989, CG6919 and CG7078. Further details: method as in PMID 15998303. Conditions: cited from earlier work.

Each structure is given as a SMILES string. Where a name gives a salt, the structure may show the parent alone.

For `O=c1cc(N2CCOCC2)oc2c(-c3ccccc3)cccc12` [LY294002], the “Effect of inhibitor on dopamine-induced ERK1/2 phosphorylation” value in test [1] is given as “significantly reduced”. For the same compound, the “Effect on D2-mediated ERK1/2 activation in CHO cells” value in test [2] is on record as “partially reduce”. In addition, in test [3], the “Effect on D3-mediated ERK1/2 activation in CHO cells” value was “partially reduce”.

Consider `C=C[C@@]1(C)CC(=O)[C@]2(O)[C@@]3(C)[C@@H](O)CCC(C)(C)[C@@H]3[C@H](O)[C@H](OC(C)=O)[C@@]2(C)O1` [forskolin, Forskolin], for which the “CHO cell cyclic AMP level after exposure to forskolin” value in test [4] was 1053.7 ± 4.8 pmoles / mg protein.

In the case of `Cc1ccc(N(CC2=NCCN2)c2cccc(O)c2)cc1` [phentolamine, phentolamine hydrochloride], the “Block of tyramine-induced inhibition of forskolin-stimulated cAMP levels” value in [5] was “fully block”. Besides, the “Effect of antagonist on ERK1/2 phosphorylation in the absence of dopamine” value in test [6] was “did not exhibit any agonistic properties”. For the same compound, the “Block of dopamine-induced ERK1/2 activation” value in [7] is on record as “fully block”. For the same compound, the “Agonist activity at AmphiAmR4” value in [8] is “agonist properties”. For the same compound, in test [9], the “Agonist properties at Drosophila OctβRs” value is listed as “agonist properties”.

These data come from paper PMC3827198, “Characterisation of AmphiAmR11, an Amphioxus (Branchiostoma floridae) D2-Dopamine-Like G Protein-Coupled Receptor” (PLoS ONE, 2013).
